Assay [1] has as its target T1, rSNORF33 (Rattus norvegicus, UniProt Q923Y9). The assay can be described thus: [3H]-TYR binding (saturation and displacement) to rSNORF33-transfected COS-7 membranes. The conditions noted are these: rSNORF33 in transfected COS-7 membranes; 2–4 experiments; read-out: Mean Ki ± S.D.M., displacement of [3H]-tyramine. The arrangement: expressed in transfected cells; host or cells: COS-7 (transient). How it is done:
Radioligand binding assays were performed by diluting membranes prepared from cells expressing the receptor (with co-expression of the rat G-protein alpha S subunit for human SNORF33) in 25 mM Gly-Gly buffer (Sigma, pH=7.4 @ 0° C.) containing 5 mM ascorbate and 10 μM pargyline (final protein concentration in assay=100-300 μg/ml). Membranes were then incubated with either [^3H]-TYR (American Radiochemicals, specific activity 60 mCi/μmole) or [^3H]-T (Amersham, specific activity 98 mCi/μmole) in the presence or absence of competing ligands on ice for 30 min in a total volume of 250 μl in 96 well microtiter plates. The bound ligand was separated from free by filtration through GF/B filters presoaked in 0.5% polyethyleneimine (PEI), using Tomtec (Wallac) or Brandel Cell Harvester vacuum filtration device. After addition of Ready Safe (Beckman) scintillation fluid, bound radioactivity was quantitated using a Trilux (Wallac) scintillation counter (approximately 20% counting efficiency of bound counts). Data was fit to non-linear curves using GraphPad Prism.
In this manner, agonist or antagonist compounds that bind to the receptor may be identified as they inhibit the binding of the labeled ligand to the membrane protein of cells expressing the said receptor. Non-specific binding was defined as the amount of radioactivity remaining after incubation of membrane protein in the presence of 10 μM of the unlabeled amine corresponding to the radioligand used. In equilibrium saturation binding assays, membrane preparations or intact cells transfected with the receptor are incubated in the presence of increasing concentrations of the labeled compound to determine the binding affinity of the labeled ligand. The binding affinities of unlabeled compounds may be determined in equilibrium competition binding assays, using a fixed concentration of labeled compound in the presence of varying concentrations of the displacing ligands.

A further assay has as its target T2, hSNORF33 (Homo sapiens, UniProt Q96RJ0).
T2 sequence (Q96RJ0 1-339): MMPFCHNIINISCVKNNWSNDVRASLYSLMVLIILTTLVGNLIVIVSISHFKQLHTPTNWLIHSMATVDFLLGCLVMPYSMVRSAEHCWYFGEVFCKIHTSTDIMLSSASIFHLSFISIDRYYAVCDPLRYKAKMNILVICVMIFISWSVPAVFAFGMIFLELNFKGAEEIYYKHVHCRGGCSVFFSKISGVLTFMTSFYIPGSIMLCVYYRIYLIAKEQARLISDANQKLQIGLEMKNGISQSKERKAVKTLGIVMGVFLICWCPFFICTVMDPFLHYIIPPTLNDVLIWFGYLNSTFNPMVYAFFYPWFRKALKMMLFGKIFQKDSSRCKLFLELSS
The assay can be described thus: Intracellular cAMP release in human SNORF33-transfected COS-7 cells. The class given is cell-based. The arrangement: expressed in transfected cells; host or cells: COS-7 (transient). The conditions noted are these: transiently transfected COS-7 cells; read-out: Mean EC50 ± S.D.M., stimulation of human SNORF33 measured by intracellular cAMP release. The procedure: The receptor-mediated stimulation or inhibition of cyclic AMP (cAMP) formation may be assayed in cells expressing the mammalian receptors. Cells are plated in 96-well plates or other vessels and preincubated in a buffer such as HEPES buffered saline (NaCl (150 mM), CaCl2 (1 mM), KCl (5 mM), glucose (10 mM)) supplemented with a phosphodiesterase inhibitor such as 5 mM theophylline, with or without protease inhibitor cocktail (For example, a typical inhibitor cocktail contains 2 μg/ml aprotinin, […] leupeptin, and 10 μg/ml phosphoramidon.) for 20 min at 37° C., in 5% CO2. Test compounds are added with or without […] forskolin and incubated for an additional 10 min at 37° C. The medium is then aspirated and the reaction stopped by the addition of 100 mM HCl or other methods. The plates are stored at 4° C. for 15 min, and the cAMP content in the stopping solution is measured by radioimmunoassay. Radioactivity may be quantified using a gamma counter equipped with data reduction software. Specific modifications may be performed to optimize the assay for the receptor or to alter the detection method of cAMP.
COS-7 cells were transiently transfected with rSNORF33 gene using the calcium phosphate method and plated in 96-well plates. 48 hours after transfection, cells were washed twice with Dulbecco's phosphate buffered saline (PBS) supplemented with 10 mM HEPES, 10 mM glucose, 5 mM theophylline and 10 μM pargyline and were incubated in the same buffer for 20 min at 37° C., in […] 5% CO2. Test compounds were added and cells were incubated for an additional 10 min at 37° C. The medium was then aspirated and the reaction stopped by the addition of 100 mM HCl. The plates were stored at −20° C. for 2-5 days. For cAMP measurement, plates were thawed and the cAMP content in each well was measured by radioimmunoassay cAMP Scintillation Proximity Assay (Amersham Pharmacia Biotech). Radioactivity was quantified using microbeta Trilux counter (Wallac).

Assay [2] deals with T1, rSNORF33. The assay can be described thus: Cl- currents in Xenopus oocytes expressing rSNORF33 and CFTR (voltage clamp). Type of assay: cell-based. The conditions noted are these: for EC50: oocytes expressing rSNORF33 and CFTR, -80 mV, mean ± S.E.M., read-out: Calculated EC50, Cl- current. How it is done:
Female Xenopus laevis (Xenopus-1, Ann Arbor, Mich.) were anesthetized in 0.2% tricain (3-aminobenzoic acid ethyl ester, Sigma Chemical Corp.) and a portion of ovary was removed using aseptic technique (Quick and Lester, 1994). Oocytes were defolliculated, using 3 mg/ml collagenase (Worthington Biochemical Corp., Freehold, N.J.) in a solution containing 82.5 mM NaCl, 2 mM KCl, 1 mM MgCl2 and 5 mM HEPES, pH 7.5, and injected (Nanoject, Drummond Scientific, Broomall, Pa.) 24 h later with 50-70 nl of individual mRNAs or mRNA mixtures (see below).
Elevation of intracellular cAMP is monitored in oocytes by expression of the cystic fibrosis transmembrane conductance regulator (CFTR) whose Cl^−-selective pore opens in response to phosphorylation by protein kinase A (Riordan, 1993). To prepare RNA transcripts for expression in oocytes, a template was created by PCR using 5′ and 3′ primers derived from the published sequence of the CFTR gene (Riordan, 1993). The 5′ primer included the sequence coding for T7 polymerase so that transcripts could be generated directly from the PCR products without cloning. Oocytes were injected with 10 ng of CFTR mRNA in addition to 10-15 ng mRNA for SNORF33. Electrophysiological recordings were made after a 2-3 day incubation at 18° C.
Dual electrode voltage clamp (“GeneClamp”, Axon Instruments Inc., Foster City, Calif.) was performed using 3 M KCl-filled glass microelectrodes having resistances of 1-3 Mohms. Unless otherwise specified, oocytes were voltage clamped at a holding potential of −80 mV. During recordings, oocytes were bathed in continuously flowing (1-3 ml/min) medium containing 96 mM NaCl, 2 mM KCl, 1.8 mM CaCl2, 1 mM MgCl2, and 5 mM HEPES, pH 7.5 (ND96). […] Experiments were carried out at room temperature. All values are expressed as mean±standard error of the mean.

T1 sequence (Q923Y9 whole entry): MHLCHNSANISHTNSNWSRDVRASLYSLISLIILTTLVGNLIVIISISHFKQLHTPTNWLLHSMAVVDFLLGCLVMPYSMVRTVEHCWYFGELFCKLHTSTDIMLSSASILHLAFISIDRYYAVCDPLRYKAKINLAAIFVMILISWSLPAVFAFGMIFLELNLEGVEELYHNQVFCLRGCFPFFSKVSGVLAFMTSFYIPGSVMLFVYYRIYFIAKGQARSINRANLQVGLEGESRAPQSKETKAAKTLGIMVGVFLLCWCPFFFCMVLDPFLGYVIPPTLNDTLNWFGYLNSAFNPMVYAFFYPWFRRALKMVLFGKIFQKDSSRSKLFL

As to `NCC(O)c1ccc(O)cc1` (stereo not drawn) [Octopamine (OCT), Octopamine], on rSNORF33 [1], the Ki was found to be 310 ± 71 nM. The figures for the EC50 on hSNORF33 and on rSNORF33 [2] were 4090 ± 95 nM and 635 ± 151 nM, respectively. Further, on rSNORF33 [2] (at 100 μM), the “Cl- currents elicited” value is recorded as “elicited Cl^− currents”.
As to `NCCc1c[nH]c2ccccc12` [Tryptamine (T), Tryptamine], the Ki at rSNORF33 [1] was found to be 70 ± 14 nM. Further, the values for the concentration giving a half-maximal response (EC50) at hSNORF33 and on rSNORF33 [2] were 24000 nM and 54 ± 10 nM, respectively. On rSNORF33 [2] (1-100 μM), the “Cl- currents elicited” value is reported as “produced this activity”.
As to `NCCc1ccc(O)cc1` [Tyramine (TYR), Tyramine], the Ki at rSNORF33 [1] amounted to 13 ± 4 nM. The EC50 on hSNORF33 is 214 ± 85 nM; at rSNORF33 [2] it was 37 ± 4.4 nM. The “Cl- currents elicited” value on rSNORF33 [2] (1-100 μM) is “produced this activity”.
